In patent US7745446B2, “Pyrazolo[1,5-c]pyrimidines” (Bayer Schering Pharma Aktiengesellschaft, priority 2004, dated 2010):

Key:
MCF7 cells = test: Cellular proliferation/cytotoxicity assay (Alamar Blue), MCF7; conditions: Homo sapiens, MCF7, 48 h, read-out: Anti-proliferative/cytotoxic activity: IC50 MCF7
Experimental: The anti-proliferative activity of the compounds as described herein, is evaluated using MCF7 and MDA-MB-468 (ATCC HTB-22 and HTB-132) cell lines and the Alamar Blue (Resazurin) cell viability assay (O'Brien et al. Eur J Biochem 267, 5421-5426, 2000). Resazurin is reduced to the fluorescent resorufin by cellular dehydrogenase activity, correlating with viable, proliferating cells. Test compounds are dissolved as 10 mM solutions in DMSO and subsequently diluted. MCF7 or MDA-MB-434 cells were seeded into 96 well flat bottom plates at a density of 10000 cells/well (MCF7) or 5000 cells/well (MDA-MB-468) in a volume of 200 μl/well. 24 hours after seeding, 1 μl each of the compound dilutions are added into each well of the 96 well plates. Each compound dilution is tested as at least as duplicates. Wells containing untreated control cells were filled with 200 μl DMEM containing 0.5% v:v DMSO. The cells are then incubated with the substances for 48 hours at 37° C. in a humidified atmosphere containing 5% carbon dioxide. To determine cell viability, 20 μl of a Resazurin solution (Sigma; 90 mg/l) are added. After 4 hours incubation at 37° C. the fluorescence is measured at an extinction of 544 nm and an emission of 590 nm (Wallac Victor2; Perkin Elmer, USA). For the calculation of the cell viability the emission value from untreated cells is set as 100% viability and the emission rates of treated cells are set in relation to the values of untreated cells. Viabilities are expressed as % values. The corresponding IC50 values of the compounds for cytotoxic activity are determined from the concentration-effect curves by means of non-linear regression. The analysis of the data is performed using a biostatistical program (GraphPad Prism, USA).

MDA-MB-468 cells = test: Cellular proliferation/cytotoxicity assay (Alamar Blue), MDA-MB-468; conditions: Homo sapiens, MDA-MB-468, 48 h, read-out: Anti-proliferative/cytotoxic activity: IC50 MDA468
GST-ΔPH-Akt1 = target: T1, GST-ΔPH-Akt1 (Homo sapiens, UniProt P31749); test: Biochemical ΔPH Akt1 assay (flashplate, 33P incorporation into histone 2B); conditions: 100 nM ATP, histone 2B substrate; read-out: ΔPHAkt1 inhibition: IC50
T1 construct: named GST-deltaPH-Akt1; 107-480aa; cloned in the pAcGl vector; GST (N); made in house; host or cells: SF9 insect cells (baculovirus vector pAcG1), co-expressed with PDK1
T1 sequence (P31749 107-480, stated change not applied): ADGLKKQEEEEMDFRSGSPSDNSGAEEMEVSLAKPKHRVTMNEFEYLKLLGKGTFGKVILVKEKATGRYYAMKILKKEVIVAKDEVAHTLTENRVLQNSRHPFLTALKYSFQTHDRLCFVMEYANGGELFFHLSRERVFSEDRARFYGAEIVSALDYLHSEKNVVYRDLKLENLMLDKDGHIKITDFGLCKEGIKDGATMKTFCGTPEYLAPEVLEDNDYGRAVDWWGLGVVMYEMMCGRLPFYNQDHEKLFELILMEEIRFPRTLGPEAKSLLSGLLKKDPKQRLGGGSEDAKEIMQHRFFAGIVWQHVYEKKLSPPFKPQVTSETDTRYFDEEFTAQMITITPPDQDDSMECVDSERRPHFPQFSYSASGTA
Text: For the biochemical assay ΔPHAkt1 is used devoid of its PH domain as a GST fusion protein (named GST-deltaPH-Akt1; 107-480aa; cloned in the pAcGl vector (BD Biosciences Pharmingen)), co-expressed with PDK1 in SF9 insect cells. The protein is purified using glutathion-affinity chromatography by standard protocols.
In order to study the inhibition of Akt according to the invention, a flashplate-based assay has been developed.
The Akt1 assay is a biochemical assay using Akt1 devoid of its PH domain and co-expressed with PDK1 in insect cells. The GST-ΔPH-Akt1 assay is run in 96 well plates by incubating 100 ng/well GST-ΔPH-Akt1, 100 ng/well histone 2B (Roche, #223514) as substrate, 10 μl of compound of invention (test compounds were dissolved as 10 mM solutions in dimethylsulfoxide (DMSO) and subsequently diluted) and 100 nM ATP (including ^33P-ATP) in 100 μl of reaction buffer ([…], pH7,5; 3 mM MgCl2; 3 mM MnCl2; 3 μM Na-Orthovanadat; 1 mM DTT; 1 μg/ml PEG8000) for 80 minutes at 30° C. The reactions are terminated by adding 100 μl stopping buffer (2% H3PO4 for 5 minutes) and are washed 3 times by using washing buffer (0.9% NaCl). Relying on the incorporation of ^33P into the protein substrate histone 2B, the detection is based on the adhesion of the phosphorylated protein to the surface of scintillator-coated flash plates (NEN, USA; #SMP-200). This phosphorylation is measured by counting the plate for 60 sec. using a plate reader (Wallac Microbeta; Perkin Elmer, USA).

Row | Compound | IC50 (MCF7 cells) [µM] | IC50 (MDA-MB-468 cells) [µM] | IC50 (GST-ΔPH-Akt1) [µM]
1 | CN1CCN(Cc2ccc(C(=O)Nc3ccc(Nc4nc(-c5cccc(Br)c5)cc5ccnn45)cc3)cc2)CC1 [Example 2, N-{4-[5-(3-Bromo-phenyl)-pyrazolo[1,5-c]pyrimidin-7-ylamino]-phenyl}-4-(4-methyl-piperazin-1-ylmethyl)-benzamide] | ≤ 16.9 | ≤ 13.6 | 
2 | Nc1ccc(C(=O)Nc2ccc(Nc3nc(-c4cccc5c4oc4ccccc45)cc4ccnn34)cc2)cc1 [Example 6, 4-Amino-N-[4-(5-dibenzofuran-4-yl-pyrazolo[1,5-c]pyrimidin-7-ylamino)-phenyl]-benzamide] |  |  | ≤ 1.75
3 | CC(C)(C)c1ccc(C(=O)Nc2ccc(Nc3nc(-c4cccc5c4oc4ccccc45)cc4ccnn34)cc2)cc1 [Example 10, 4-tert-Butyl-N-[4-(5-dibenzofuran-4-yl-pyrazolo[1,5-c]pyrimidin-7-ylamino)-phenyl]-benzamide] |  |  | ≤ 2.45
4 | O=C(Cc1cccc(Cl)c1)Nc1ccc(Nc2nc(-c3cccc4c3oc3ccccc34)cc3ccnn23)cc1 [Example 12, 2-(3-Chloro-phenyl)-N-[4-(5-dibenzofuran-4-yl-pyrazolo[1,5-c]pyrimidin-7-ylamino) -phenyl]-acetamide] |  |  | ≤ 2.45
5 | NCc1ccc(C(=O)Nc2cccc(Nc3nc(-c4cccc5c4oc4ccccc45)cc4ccnn34)c2)cc1 [Example 17, 4-Aminomethyl-N-[3-(5-dibenzofuran-4-yl-pyrazolo[1,5-c]pyrimidin-7-ylamino)-phenyl]-benzamide] | ≤ 16.9 | ≤ 13.6 | ≤ 1.75
6 | NCc1cccc(C(=O)Nc2cccc(Nc3nc(-c4cccc5c4oc4ccccc45)cc4ccnn34)c2)c1 [Example 18, 3-Aminomethyl-N-[3-(5-dibenzofuran-4-yl-pyrazolo[1,5-c]pyrimidin-7-ylamino)-phenyl]-benzamide] | ≤ 16.9 | ≤ 13.6 | ≤ 1.75
7 | NCc1ccc(C(=O)Nc2ccc(Nc3nc(-c4cccc5c4oc4ccccc45)cc4ccnn34)cc2)cc1 [Example 19, 4-Aminomethyl-N-[4-(5-dibenzofuran-4-yl-pyrazolo[1,5-c]pyrimidin-7-ylamino)-phenyl]-benzamide] | ≤ 16.9 | ≤ 13.6 | ≤ 1.75
8 | NCc1cccc(C(=O)Nc2ccc(Nc3nc(-c4cccc5c4oc4ccccc45)cc4ccnn34)cc2)c1 [Example 20, 3-Aminomethyl-N-[4-(5-dibenzofuran-4-yl-pyrazolo[1,5-c]pyrimidin-7-ylamino)-phenyl]-benzamide] | ≤ 16.9 | ≤ 13.6 | ≤ 1.75
9 | NCCc1ccc(C(=O)Nc2cccc(Nc3nc(-c4cccc5c4oc4ccccc45)cc4ccnn34)c2)cc1 [Example 21, 4-(2-Amino-ethyl)-N-[3-(5-dibenzofuran-4-yl-pyrazolo[1,5-c]pyrimidin-7-ylamino)-phenyl]-benzamide] |  |  | ≤ 1.75
10 | NCCCC(=O)Nc1cccc(Nc2nc(-c3cccc4c3oc3ccccc34)cc3ccnn23)c1 [Example 22, 4-Amino-N-[3-(5-dibenzofuran-4-yl-pyrazolo[1,5-c]pyrimidin-7-ylamino)-phenyl]-butyramide] |  |  | ≤ 1.75
11 | NCc1ccc(C(=O)Nc2ccc(Nc3nc(-c4ccc5cc(O)ccc5c4)cc4ccnn34)cc2)cc1 [Example 44, 4-Aminomethyl-N-{4-[5-(6-hydroxy-naphthalen-2-yl)-pyrazolo[1,5-c]pyrimidin-7-ylamino]-phenyl}-benzamide] |  |  | ≤ 1.75
12 | COc1ccc2cc(-c3cc4ccnn4c(Nc4ccc(NC(=O)c5ccc(CN)cc5)cc4)n3)ccc2c1 [Example 45, 4-Aminomethyl-N-{4-[5-(6-methoxy-naphthalen-2-yl)-pyrazolo[1,5-c]pyrimidin-7-ylamino]-phenyl}-benzamide] | ≤ 16.9 | ≤ 13.6 | ≤ 1.75
13 | NCc1ccc(C(=O)Nc2ccc(Nc3nc(-c4cccc(-c5ccccc5)c4)cc4ccnn34)cc2)cc1 [Example 71, 4-Aminomethyl-N-[4-(5-biphenyl-3-yl-pyrazolo[1,5-c]pyrimidin-7-ylamino)-phenyl]-benzamide] |  |  | ≤ 2.45
14 | COc1ccc(-c2cccc(-c3cc4ccnn4c(Nc4ccc(NC(=O)c5ccc(CN)cc5)cc4)n3)c2)cc1 [Example 72, 4-Aminomethyl-N-{4-[5-(4′-methoxy-biphenyl-3-yl)-pyrazolo[1,5-c]pyrimidin-7-ylamino]-phenyl}-benzamide] |  |  | ≤ 1.75
15 | CC(=O)Nc1cccc(-c2cccc(-c3cc4ccnn4c(Nc4ccc(NC(=O)c5ccc(CN)cc5)cc4)n3)c2)c1 [Example 73, N-{4-[5-(3′-Acetylamino-biphenyl-3-yl)-pyrazolo[1,5-c]pyrimidin-7-ylamino]-phenyl}-4-aminomethyl-benzamide] |  |  | ≤ 2.45
16 | COc1cccc(-c2cccc(-c3cc4ccnn4c(Nc4ccc(NC(=O)c5ccc(CN)cc5)cc4)n3)c2)c1 [Example 74, 4-Aminomethyl-N-{4-[5-(3′-methoxy-biphenyl-3-yl)-pyrazolo[1,5-c]pyrimidin-7-ylamino]-phenyl}-benzamide] |  |  | ≤ 2.45
17 | NCCc1ccc(C(=O)Nc2ccc(Nc3nc(-c4ccc(-c5ccc(F)cc5)cc4)cc4ccnn34)cc2)cc1 [Example 75, 4-(2-Amino-ethyl)-N-{4-[5-(4′-fluoro-biphenyl-4-yl)-pyrazolo[1,5-c]pyrimidin-7-ylamino]-phenyl}-benzamide] |  |  | ≤ 1.75
18 | O=C(Nc1ccc(Nc2nc(-c3ccc(-c4ccc(F)cc4)cc3)cc3ccnn23)cc1)c1ccc2c(c1)CCNC2 [Example 76, 1,2,3,4-Tetrahydro-isoquinoline-6-carboxylic acid {4-[5-(4′-fluoro-biphenyl-4-yl)-pyrazolo[1,5-c]pyrimidin-7-ylamino]-phenyl}amide] |  |  | ≤ 1.75
19 | COc1cccc(-c2ccc(-c3cc4ccnn4c(Nc4ccc(NC(=O)c5ccc6c(c5)CCNC6)cc4)n3)cc2)c1 [Example 77, 1,2,3,4-Tetrahydro-isoquinoline-6-carboxylic acid {4-[5-(3′-methoxy-biphenyl-4-yl)-pyrazolo[1,5-c]pyrimidin-7-ylamino]-phenyl}amide] |  |  | ≤ 1.75
20 | CC(=O)Nc1cccc(-c2ccc(-c3cc4ccnn4c(Nc4ccc(NC(=O)c5ccc(CCN)cc5)cc4)n3)cc2)c1 [Example 82, N-{4-[5-(3′-Acetylamino-biphenyl-4-yl)-pyrazolo[1,5-c]pyrimidin-7-ylamino]-phenyl}-4-(2-amino-ethyl)-benzamide] |  |  | ≤ 1.75
21 | CC(=O)Nc1cccc(-c2ccc(-c3cc4ccnn4c(Nc4ccc(NC(=O)c5ccc6c(c5)CCNC6)cc4)n3)cc2)c1 [Example 83, 1,2,3,4-Tetrahydro-isoquinoline-6-carboxylic acid {4-[5-(3′-acetylamino-biphenyl-4-yl)-pyrazolo[1,5-c]pyrimidin-7-ylamino]-phenyl}-amide] | ≤ 16.9 | ≤ 13.6 | 
22 | NCCc1ccc(C(=O)Nc2ccc(Nc3nc(-c4ccc(Br)cc4)cc4ccnn34)cc2)cc1 [Example 84, 4-(2-Amino-ethyl)-N-{4-[5-(4-bromo-phenyl)-pyrazolo[1,5-c]pyrimidin-7-ylamino]-phenyl}-benzamide] |  |  | ≤ 1.75
23 | COc1cccc(-c2ccc(-c3cc4c(Br)cnn4c(Nc4ccc(NC(=O)c5ccc(CCN)cc5)cc4)n3)cc2)c1 [Example 86, 4-(2-Amino-ethyl)-N-{4-[3-bromo-5-(3′-methoxy-biphenyl-4-yl)-pyrazolo[1,5-]pyrimidin-7-ylamino]-phenyl}-benzamide] |  |  | ≤ 1.75
24 | COc1ccc(-c2ccc(-c3cc4c(Br)cnn4c(Nc4ccc(NC(=O)c5ccc(CN)cc5)cc4)n3)cc2)cc1 [Example 88, 4-Aminomethyl-N-{4-[3-bromo-5-(4′-methoxy-biphenyl-4-yl)-pyrazolo[1,5-c]pyrimidin-7-ylamino]-phenyl}-benzamide] |  |  | ≤ 1.75
25 | NCc1ccc(C(=O)Nc2ccc(Nc3nc(-c4ccc(-c5ccc(F)cc5)cc4)cc4c(Br)cnn34)cc2)cc1 [Example 89, 4-Aminomethyl-N-{4-[3-bromo-5-(4′-fluoro-biphenyl-4-yl)-pyrazolo[1,5-c]pyrimidin-7-ylamino]-phenyl}-benzamide] |  |  | ≤ 1.75
26 | CC(=O)Nc1cccc(-c2ccc(-c3cc4c(Br)cnn4c(Nc4ccc(NC(=O)c5ccc(CN)cc5)cc4)n3)cc2)c1 [Example 90, N-{4-[5-(3′-Acetylamino-biphenyl-4-yl)-3-bromo-pyrazolo[1,5-c]pyrimidin-7-ylamino]-phenyl}-4-aminomethyl-benzamide] |  |  | ≤ 1.75
27 | NCc1ccc(C(=O)Nc2ccc(Nc3nc(-c4cccc5c4oc4ccccc45)cc4c(Br)cnn34)cc2)cc1 [Example 91, 4-Aminomethyl-N-[4-(3-bromo-5-dibenzofuran-4-yl-pyrazolo[1,5-c]pyrimidin-7-ylamino) -phenyl]-benzamide] |  |  | ≤ 1.75
